Consider 17 compounds from patent publication US5863916A, “8-aza, 6-aza and 6,8-diaza-1,4-dihydroquinoxaline-2,3-diones and the use thereof as antagonists for the glycine/NMDA receptor” (priority 1997, dated 1999).

Data set [1] concerns glycine binding site of the NMDA receptor. The settings on record: cited from earlier work.
The target in a further data set is glycine/NMDA receptor. Briefly: glycine/NMDA receptor affinity (1 μM glycine-stimulated [3H]-MK801 binding, rat brain membranes; also estimated by electrophysiology). On the procedure:
The assay is conducted using rat brain membrane homogenates that are enriched in NMDA receptors. The membranes are prepared as follows. Frozen rat brains (obtained from Pel-Freez, Rogers, Ark.) are homogenized in 15 volumes (w/v) of ice cold 0.32M sucrose. The homogenate is spun at 1,000×g for ten minutes. The supernatant is collected and spun for 20 minutes at 44,000×g. The pellet is suspended in 15 volumes of water (relative to original brain weight). The homogenate is again spun at 44,000×g for twenty minutes. The pellet is resuspended in 5 volumes of water and the suspension is freeze-thawed 2 times. After the final thaw cycle, the suspension is brought to 15 volumes with water and spun at 44,000×g for twenty minutes. The pellet is resuspended in 5 volumes of ice-cold 10 mM HEPES, and is titrated to pH 7.4 with KOH containing 0.04% Triton X-100. […] The volume is then brought to 15 with ice-cold 10 mM HEPES, pH 7.4, and spun/washed three times with spins of 44,000×g between washes. The final pellet is suspended in three volumes of 50 mM HEPES, pH 7.4 and the protein concentration is determined with a standard dye-binding protein assay (Bio-Rad, Richmond, Calif.). The suspension is stored at -80° C. until used. Only HPLC grade water is used for all buffers and suspensions/washings. The extensive washings are necessary to remove as much endogenous glycine from the membrane preparation as possible.
Nonspecific binding is defined as the […] presence of PCP (final concentration: 100 μM). […] A 500 nM concentration (final) of 5,7-dichlorokynurenic (DCK) acid is added to all assay tubes. This concentration of the glycine antagonist DCK "buffers" most of the residual endogenous glycine that is not removed by the extensive washing steps that are carried out during the membrane preparation procedure.
Filtration is accomplished using a Brandel 48 well cell harvester. Filtered membranes are washed three times with 3 mL each of ice cold buffer. Filters are transferred to scintillation vials and 5 mL of scintillation cocktail is added. The vials are shaken overnight and the radioactivity is counted by liquid scintillation spectroscopy. The assays are done in triplicate and all experiments are conducted at least three times.
The binding affinities at NMDA receptor glycine sites also were estimated by electrophysiological assay either using cloned rat NMDA receptors expressed in Xenopus oocytes, or non-NMDA receptors expressed in oocytes by whole rat brain poly(A)^+ RNA. […] For NMDA receptors Kb s were approximated by averaging values at three subtype combinations (NR1A/NR2A, NR1A/NR2B, and NR1A/NR2C).

The subject of another data set is MES-induced seizures. Briefly: anticonvulsant activity, maximum electroshock-induced seizure (MES) experiment in mice. In kind it is in vivo, mouse. The settings on record: for ED50: Mus musculus, iv, read-out: ED50 as an anticonvulsant in MES experiment. On the procedure: The anticonvulsant activity of the glycine antagonists may be assessed in the maximum electroshock-induced seizure (MES) assay in mice. […] The seizure stimulus parameters were: 50 mA, 60 Hz, rectangular pulse, width 0.8 msec, duration 200 msec. Tonic hind limb extension observed after application of the electrical stimulus was recorded as occurrence of seizure. The drug was applied i.v. as an aqueous basic solution.

In data set [2] the test system is MES-induced tonic clonic seizures. Briefly: Example 35: time course and potency in maximum electroshock (MES) model, i.v., mice. The note with it: for protection of mice at the lowest dose: 2 minutes; for animals showing no tonic seizures: 2 minutes after i.v. 5 mg/kg (6-chloro-8-(N-oxy)aza) or 10 mg/kg (6-chloro-7-methyl-8-(N-oxy)aza); for mice protected against seizures: 15 minutes after i.v. 5 mg/kg (6-chloro-8-(N-oxy)aza) or 10 mg/kg (6-chloro-7-methyl-8-(N-oxy)aza); for ED50: Mus musculus, iv, 2 min, Litchfield and Wilcoxon, read-out: ED50, inhibition of MES-induced seizures; for ED50 / 95% confidence limits of ED50 / inhibition of MES-induced seizures / time of maximal anti-MES effect: i.v.; for ED50 / 95% confidence limits of ED50: 2 minutes post injection; for efficacy in inhibiting MES-induced tonic seizures over time: i.v. time course, 2-60 minutes; for inhibition of MES-induced seizures: dose dependence; for time of maximal anti-MES effect: post-injection. In kind it is in vivo, Swiss-Webster mouse. From the text:
The objectives of the studies were to determine the time of maximal effect and potency for compounds 6-chloro-8-(N-oxy)aza-1,4-dihydroquinoxaline-2,3-dione and 6-chloro-7-methyl-8-(N-oxy)aza-1,4-dihydroquinoxaline-2,3-dione in the inhibition of maximal electroshock (MES)-induced tonic clonic seizures following intravenous (i.v.) administration in mice.
The time-course study involved a one-factor, between groups design in which animals were divided into groups based on the time between administration of 6-chloro-8-(N-oxy)aza-1,4-dihydroquinoxaline-2,3-dione and 6-chloro-7-methyl-8-(N-oxy)aza-1,4-dihydroquinoxaline-2,3-dione and the MES stimulus. Similarly, the potency study involved a one-factor, between group design in which animals were divided into groups based on drug dose. Each group in both studies consisted of 8 animals.
6-Chloro-8-(N-oxy)aza-1,4-dihydroquinoxaline-2,3-dione and 6-chloro-7-methyl-8-(N-oxy)aza-1,4-dihydroquinoxaline-2,3-dione were dissolved in 0.05M Tris (J. T. Baker) at concentrations of 5 mg/mL and 2.5 mg/mL, respectively.
Experiments were conducted with Swiss-Webster male mice (Simonsen Lab. Inc.). Mice were 5-6 weeks old and weighed 18-24 g upon arrival in the laboratory. In the time course study, mice were treated with an i.v. injection of 6-chloro-8-(N-oxy)aza-1,4-dihydroquinoxaline-2,3-dione (5 mg/kg) or 6-chloro-7-methyl-8-(N-oxy)aza-1,4-dihydroquinoxaline-2,3-dione(10 mg/kg) or vehicle. Mice were tested at 2, 15, 30, or 60 minutes after vehicle or drug administration. […] The electroshock device was a Ugo Basile ECT Unit 7801 (Varese, Italy; Model 24093). The electroshock characteristics were as follows: 50 mA, 60 pulses per second, […], and a 0.2 second train length. […] Tonic seizures were defined as the tonic extension of the forelimbs and hindlimbs. […] Therefore, the result from each animal was an all-or-none phenomenon with either a seizure present or absent following the shock administration. The time point at which 6-chloro-8-(N-oxy)aza-1,4-dihydroquinoxaline-2,3-dione and 6-chloro-7-methyl-8-(N-oxy)aza-1,4-dihydroquinoxaline-2,3-dione produced a maximal response was determinated by analyzing the graphical results. The dose at which 50% of the animals were protected against MES-induced seizures (ED50) was calculated by Litchfield and Wilcoxon Method (Pharm/PCS R. J. Tallarida & R. B. Murray Version 4.2).

Data set [3] is described as follows: blood-brain-barrier crossing inferred from Ki and MES ED50. In kind it is in vivo, mouse.
Data set [4] relates to focal cerebral ischemia (MCA occlusion). In words: rat model of permanent focal cerebral ischemia (MCA occlusion), infarct volume. In kind it is in vivo, Sprague-Dawley rat. On the procedure:
Male Sprague-Dawley rats ([…]) were intubated and maintained under anesthesia with ±2% of halothane. Body temperature was maintained at 37.5° C. during surgery by means of a warming pad and a rectal probe connected to the control unit. The common carotid arteries (CCA) were isolated and a loose silk ligature was placed around each CCA. A vertical skin incision was made between the left orbit and the auditory canal, posterior part of zygoma removed, and a small opening (2.0/2.5 mm) drilled dorsorostrally to the foramen ovale under constant saline irrigation. The dura was opened with a microsurgical hook and the brain gently retracted with a fine spatula to expose the bifurcation of the internal carotid artery and the middle cerebral artery. The ipsilateral CCA was ligated and the MCA coagulated from its origin to the olfactory tract. Two hours after MCA occlusion, the clip from the contralateral CCA was removed. […]
Brains were sliced into 2 mm blocks and stained with tetrazolium red (2,3,5-triphenyl tetrazolium chloride). The areas of brain damage were assessed using an image analyzer (Image-1, Universal Imaging Corporation, PA) to determine the volume of cortical and subcortical infarction by integration of areas and the distance between each level.

The test system of another data set is brain ischemia / neurons. The settings on record: cited from earlier work.
[5] abbreviates: 20 mg/kg bolus + 14 mg/kg/h for 22 h, 30 min after MCA occlusion.

Regarding `O=C(O)c1cc(O)c2c(Cl)cc(Cl)cc2n1` [5,7-dichlorokynurenic acid], the “receptor binding affinity in vitro” value in data set [1] is given as “relatively high receptor binding affinity in vitro”.
As to `O=c1[nH]c2cc(Cl)c(Cl)[n+]([O-])c2[nH]c1=O` [6,7-Dichloro-8(N-oxy)aza-1,4-dihydroquinoxaline-2,3-dione], the Ki on glycine/NMDA receptor was 100 nM. The ED50 with MES-induced seizures stood at 7.5 mg/kg.
For `O=c1[nH]c2cc(Cl)c(Cl)c([N+](=O)[O-])c2[nH]c1=O` [6,7-dichloro-5-nitro-1,4-dihydroquinoxaline-2,3-dione, reference compound], the Ki at glycine/NMDA receptor is 3.3 nM. The “ED50 as an anticonvulsant in MES experiment” value in the data set with MES-induced seizures is 4 to 5 mg/kg.
Take `O=c1[nH]c2cc(Br)c[n+]([O-])c2[nH]c1=O` [6-Bromo-8-(N-oxy)aza-1,4-dihydroquinoxaline-2,3-dione]: the Ki on glycine/NMDA receptor was 1000 nM. Besides, the ED50 with MES-induced seizures was 1 to 1.5 mg/kg.
As for `Cc1c(Cl)cc2[nH]c(=O)c(=O)[nH]c2[n+]1[O-]` [6-Chloro-7-methyl-8-(N-oxy)aza-1,4-dihydroquinoxaline-2,3-dione], the Ki on glycine/NMDA receptor is 50 nM. Also, in data set [2] (4 mg/kg i.v.), the “protection of mice at the lowest dose” value was 12.5%. For the same compound, in data set [2], the “animals showing no tonic seizures” value is 8/8, the “mice protected against seizures” value is 3/8, the median effective dose (ED50) came out at 6.71 mg/kg and the “efficacy in inhibiting MES-induced tonic seizures over time” value is “decreased over one hour”. Besides, in data set [2], the “95% confidence limits of ED50” value is 5.48 to 8.22 mg/kg; the “inhibition of MES-induced seizures” value was “dose dependently, inhibited MES-induced seizures”; the “time of maximal anti-MES effect” value worked out at 2 min. Further, the ED50 in the data set on MES-induced seizures amounted to 7 mg/kg.
Consider `[O-][n+]1cc(Cl)cc2nc(O)c(O)nc21` [6-Chloro-8-(N-oxy)aza-1,4-dihydroquinoxaline-2,3-dione], for which the Ki on glycine/NMDA receptor was 600 nM. Besides, in data set [2] (0.5 mg/kg i.v.), the “protection of mice at the lowest dose” value came to 25%. Moreover, in data set [2], the “animals showing no tonic seizures” value was 8/8, the “mice protected against seizures” value is reported as 4/8, the ED50 was 1.26 mg/kg and the “efficacy in inhibiting MES-induced tonic seizures over time” value is “decreased over one hour”. In data set [2], the “95% confidence limits of ED50” value lay within 0.94 to 1.67 mg/kg; the “inhibition of MES-induced seizures” value was “dose dependently, inhibited MES-induced seizures”; the “time of maximal anti-MES effect” value turned out to be 2 min. The ED50 in the data set with MES-induced seizures lay in the range of 1 to 1.5 mg/kg. In data set [3], the “blood-brain-barrier crossing relative to 6,7-dichloro-5-nitro-1,4-dihydroquinoxaline-2,3-dione” value is “about 1000 times”. In addition, the “protection at the lower dose” value in data set [4] (10 mg/kg bolus + 7 mg/kg/h for 22 h, immediately after MCA occlusion) is “no protection”. For the same compound, in data set [4] (setting [5]), the “reduction in cortical infarct volume” value is on record as 70% and the “reduction in subcortex infarct volume” value worked out at 35%. Further, in data set [4] (20 mg/kg bolus + 14 mg/kg/h for 22 h i.v., immediately after MCA occlusion), the “reduction in cortical infarct volume” value was 67%. Also, the neuroprotection result in data set [4] (rat model of focal ischemia) is “significant neuroprotection”.
Take `Cc1cc2[nH]c(=O)c(=O)[nH]c2[n+]([O-])c1` [6-Methyl-8-(N-oxy)aza-1,4-dihydroquinoxaline-2,3-dione]: the Ki on glycine/NMDA receptor was 2400 nM. Also, the ED50 in the data set with MES-induced seizures lay within 1 to 1.5 mg/kg.
For the compound `O=C(O)c1cc(O)c2ccc(Cl)cc2n1` [7-Cl-kynurenic acid], in data set [1], the “receptor binding affinity in vitro” value is reported as “relatively high receptor binding affinity in vitro”.
For the compound `O=c1[nH]c2cc(Cl)cnc2[nH]c1=O` [Compound 5, 6-Chloro-8-aza-1,4-dihydroquinoxaline-2,3-dione], in the data set with glycine/NMDA receptor, the “activity relative to corresponding QX” value is “about as active as the corresponding 6-chloro-QX”.
Consider `O=c1[nH]c2cc(Cl)c(Cl)nc2[nH]c1=O` [Compound 6, 6,7-Dichloro-8-aza-1,4-dihydroquinoxaline-2,3-dione], for which the Ki at glycine/NMDA receptor was about 200 nM.
Still for that read-out and setting: next, `Cc1nc2[nH]c(=O)c(=O)[nH]c2cc1Br` [Compound 8, 6-Bromo-7-methyl-8-aza-1,4-dihydroquinoxaline-2,3-dione]: about 200 nM.
For the compound `O=c1[nH]c2ccncc2[nH]c1=O` [Compound 11, 6-Aza-1,4-dihydroquinoxaline-2,3-dione], in the data set with glycine/NMDA receptor, the “activity relative to corresponding QX” value is on record as “about as active as QX”.
Same read-out and setting: for `O=c1[nH]c2cncnc2[nH]c1=O` [Compound 13, 6,8-Diaza-1,4-dihydroquinoxaline-2,3-dione] the value was “about as active as QX”.
Turning to `NC1CCN(O)C1=O` (stereo not shown) [HA-966], in data set [1], the agonist character entry was “partial agonist” and the “receptor binding affinity in vitro” value is reported as “micromolar affinity for the glycine binding site”.
Take `COc1ccc2c(c1)[C@]13CCCC[C@@H]1[C@H](C2)N(C)CC3` [dextromethorphan]: the neuroprotective efficacy result in the data set with brain ischemia / neurons was “neuroprotective efficacy both in vitro and in vivo”.
As for `O=C(O)c1cc2ccccc2[nH]1` [indole-2-carboxylic acid], the “receptor binding affinity in vitro” value in data set [1] is recorded as “relatively high receptor binding affinity in vitro”.
On to `CNC1(c2ccccc2Cl)CCCCC1=O` (stereo not shown) [ketamine], for which the neuroprotective efficacy result with brain ischemia / neurons is “neuroprotective efficacy both in vitro and in vivo”.
